Reference: patent US20060127324A1, “Chewable oral compositions containing an anti-microbial agent and methods of formulating the compositions to have acceptable germ kill properties and taste” (Cadbury Adams USA LLC, priority 2004, published 2006)
≈ marks a conversion by molar mass, not a printed value.

Experiments:
[1] = Release of anti-microbial agent from chewing gum composition after 10 minutes of chewing; type: physicochemical; details: for Q factor (100/percentage released): chewing gum composition; for Release Rate (%) After 10 Minutes of Chewing: chewing gum compositions
Method: The germ kill potential (P) therefore is determined by the product of the concentration of at least one anti-microbial agent contained in the composition and the germ kill rating of each anti-microbial agent. The result is in turn multiplied by the mass of the composition and a factor Q as defined previously which is a measure of how easily the anti-microbial agent is released from the oral composition into the oral cavity. The Q factor may be readily determined for a given oral composition by comparing the amount of the anti-microbial agent present in the oral composition before placement in the oral cavity and how much remains after placement in the oral cavity for a fixed period of time. For other compositions such as chewing gum compositions, the release rate of the anti-microbial agent is much slower. Typically only a portion of the anti-microbial agent is released instantaneously and/or on initial chewing. For example, the release rate of anti-microbial agents after 10 minutes of chewing can be as low as less than 10%. […] Thus, the factor Q is 11.1 (100%/9%). The targeted (P) value selected for the chewing gum composition would therefore have to be about 11.1 times greater than the (P) value for the corresponding pressed mint composition.

[2] = test system: microorganisms found in the oral cavity; assay: Minimum inhibitory concentration (MIC) of anti-microbial agent; type: cell-based
Text: The germ kill rating (R) of each anti-microbial agent used in the oral composition is the ratio of the maximum acceptable taste concentration (ATC) of the anti-microbial agent and the minimum inhibitory concentration (MIC). The germ kill rating (R) is therefore a value representative of the suitability of a particular anti-microbial agent to provide a balance between acceptable taste and germ killing efficacy. A relatively high (R) value is indicative of an anti-microbial agent that can be used in a relatively large range of concentrations without adversely effecting taste while still obtaining the desired germ kill properties. […] However, thymol has a very low maximum acceptable taste concentration and therefore provides a germ kill rating (R) of 1.1 which is lower than the other four essential oils in Table 2 even though the other essential oils have a higher minimum inhibitory concentration.

[3] = test system: microorganisms found in the oral cavity; assay: Germ kill rating (R), ratio of ATC and MIC; details: mint lozenge having a weight of 1.5 grams
Text: The germ kill rating (R) is therefore a quantitative indication of the range of concentrations of the anti-microbial agent (i.e. effective concentration range) that may be employed to achieve both the desirable germ kill properties and acceptable taste. By way of example, an anti-microbial agent having a germ kill rating of 10 has an effective concentration range twice as large as an anti-microbial agent having a germ kill rating of 5. The germ kill rating (R) of each anti-microbial agent used in the oral composition is the ratio of the maximum acceptable taste concentration (ATC) of the anti-microbial agent and the minimum inhibitory concentration (MIC). The germ kill rating (R) is therefore a value representative of the suitability of a particular anti-microbial agent to provide a balance between acceptable taste and germ killing efficacy. A relatively high (R) value is indicative of an anti-microbial agent that can be used in a relatively large range of concentrations without adversely effecting taste while still obtaining the desired germ kill properties. […] The maximum acceptable taste concentration (ATC) of an anti-microbial agent can be determined through known population sampling methods. […] The results are averaged and analyzed according to known statistical methods to yield the ATC value for a particular anti-microbial agent in a given solid carrier (e.g. mint lozenge). […]

Q factor (100/percentage released) [1]	Release Rate (%) After 10 Minutes of Chewing [1] [%]	Release Rate (%) After 10 Minutes of Chewing ([1]; listed as eucalyptol) [%]	MIC [2] [µg/mL]	SMILES	Germ Kill Rating (R) [3]
–	8.9	–	–	COC(=O)c1ccccc1O [Methyl Salicylate]	–
–	–	–	87 (≈ 579 µM)	Cc1ccc(C(C)C)c(O)c1 [Thymol]	1.1

Further lines, the compound ahead of its results:

SMILES	Q factor (100/percentage released) [1]	Release Rate (%) After 10 Minutes of Chewing [1] [%]	Release Rate (%) After 10 Minutes of Chewing ([1]; listed as eucalyptol) [%]	MIC [2] [µg/mL]	Germ Kill Rating (R) [3]
CC12CCC(CC1)C(C)(C)O2 [Eucalyptol]	5.025	19.9	19.9	–	–
CC1CCC(C(C)C)C(O)C1 (centres unmarked) [Menthol]	11.1	9	–	500 (≈ 3200 µM)	24
CC(C)[C@@H]1CC[C@@H](C)CC1=O [Menthone]	–	10.4	–	–	–
